Measurements: US20160158200A1, “Combinations of Hepatitis C Virus Inhibitors” (priority 2013, published 2016)
Like-named read-outs stand apart in the source and are kept apart here.

System: HCV genotype-1a variant with glutamine 30 changed to glutamate in the NS5A protein
Assay type: cell-based
Method in brief: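 Synergy was assessed by combining several fixed amounts of an NS5A-targeting compound with a titration of the second compound of interest.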

[1] = test compound titrated with BMS-790052 fixed at 200 nM, genotype 1a Q30E replicon

| SMILES | Fold-Synergistic 1a (Q30E) [1] [fold] | Fold-Synergistic 1a (Q30E) [fold] |
| --- | --- | --- |
| CC(C)(C)[C@H](NC(=O)[C@H]1C[C@@H]2[C@H](C1)C2(F)F)c1nc(-c2ccc(-c3ccc(-c4c[nH]c([C@@H](NC(=O)[C@H]5C[C@@H]6[C@H](C5)C6(F)F)C(C)(C)C)n4)cc3)cc2)c[nH]1 [Compound Y-10] | >100 |  |
| CC(C)[C@H](NC(=O)C(C)(C)C)c1ncc(-c2ccc(-c3ccc(-c4cnc([C@@H](NC(=O)C(C)(C)C)C(C)C)[nH]4)c(OC(F)F)c3)cc2)[nH]1 [Compound Y-11] | >100 |  |
| CC(C)[C@H](NC(=O)C1(C)CCCCC1)c1ncc(-c2ccc(-c3ccc(-c4cnc([C@@H](NC(=O)C5(C)CCCCC5)C(C)C)[nH]4)c(OC(F)F)c3)cc2)[nH]1 [Compound Y-12] | >100 |  |
| COc1cc2ccccc2c(C(=O)N2CCC[C@H]2c2ncc(-c3ccc(-c4ccc(-c5cnc([C@@H](NC(=O)C(C)(C)C)C(C)C)[nH]5)cc4)cc3)[nH]2)n1 [Compound Y-13] |  | >100 |
| CC(C)CC(=O)N1CCC[C@H]1c1ncc(-c2ccc(-c3ccc(-c4cnc([C@@H](NC(=O)C(C)(C)C)C(C)C)[nH]4)cc3)cc2)[nH]1 [Compound Y-14] | >100 |  |
| CC(C)[C@H](NC(=O)c1ccccc1)c1ncc(-c2ccc(-c3ccc(-c4cnc([C@@H]5CCCN5C(=O)c5ccccc5)[nH]4)cc3)cc2)[nH]1 [Compound Y-15] | >10 |  |
| CC(C)CC(=O)N[C@H](c1ncc(-c2ccc(-c3ccc(-c4cnc([C@@H]5CCCN5C(=O)CC(C)C)[nH]4)cc3)cc2)[nH]1)C(C)C [Compound Y-16] | >10 |  |
| COC(=O)NC(C(=O)NC(c1nc(-c2ccc(-c3ccc(-c4cn(C)c(C(NC(=O)C(NC(=O)OC)C(C)C)C(C)C)n4)cc3)cc2)cn1C)C(C)C)C(C)C.O=C(O)C(F)(F)F.O=C(O)C(F)(F)F (stereo not shown) [Compound Y-17] | >10 |  |
| CC(C)CC(=O)NC(c1nc(-c2ccc(-c3ccc(-c4cn(C)c(C(NC(=O)CC(C)C)C(C)C)n4)cc3)cc2)cn1C)C(C)C.O=C(O)C(F)(F)F.O=C(O)C(F)(F)F (stereo not shown) [Compound Y-18] | <10 |  |
| COc1cc2ccccc2c(C(=O)N[C@H](c2ncc(-c3ccc(-c4ccc(-c5cnc([C@@H](NC(=O)c6nc(OC)cc7ccccc67)C(C)C)[nH]5)cc4)cc3)[nH]2)C(C)C)n1 [Compound Y-19] | >100 |  |
| CC(C)[C@H](NC(=O)c1ccc(C(F)(F)F)s1)c1ncc(-c2ccc(-c3ccc(-c4cnc([C@@H](NC(=O)c5ccc(C(F)(F)F)s5)C(C)C)[nH]4)cc3)cc2)[nH]1 [Compound Y-21] | >100 |  |
| CC(C)[C@H](NC(=O)c1cc(F)cc(F)c1)c1ncc(-c2ccc(-c3ccc(-c4cnc([C@@H](NC(=O)c5cc(F)cc(F)c5)C(C)C)[nH]4)cc3)cc2)[nH]1 [Compound Y-23] | >100 |  |
| CC(C)[C@H](NC(=O)c1cc(Cl)ccc1F)c1ncc(-c2ccc(-c3ccc(-c4cnc([C@@H](NC(=O)c5cc(Cl)ccc5F)C(C)C)[nH]4)cc3)cc2)[nH]1 [Compound Y-24] | >100 |  |
| CC(C)[C@H](NC(=O)C(C)(C)n1cccn1)c1ncc(-c2ccc(-c3ccc(-c4cnc([C@@H](NC(=O)C(C)(C)n5cccn5)C(C)C)[nH]4)cc3)cc2)[nH]1 [Compound Y-25] | >100 |  |
| CC(C)[C@H](NC(=O)C(C)(C)NC(=O)OC(C)(C)C)c1ncc(-c2ccc(-c3ccc(-c4cnc([C@@H](NC(=O)C(C)(C)NC(=O)OC(C)(C)C)C(C)C)[nH]4)cc3)cc2)[nH]1 [Compound Y-26] | >100 |  |
| CC(C)[C@H](NC(=O)c1sccc1F)c1ncc(-c2ccc(-c3ccc(-c4cnc([C@@H](NC(=O)c5sccc5F)C(C)C)[nH]4)cc3)cc2)[nH]1 [Compound Y-28] | >100 |  |

| SMILES | Fold-Synergistic 1a (Q30E) [1] [fold] | Fold-Synergistic 1a (Q30E) [fold] |
| --- | --- | --- |
| CC(C)OC(C)(C)C(=O)N[C@H](c1ncc(-c2ccc(-c3ccc(-c4cnc([C@@H](NC(=O)C(C)(C)OC(C)C)C(C)C)[nH]4)cc3)cc2)[nH]1)C(C)C [Compound Y-29] | >100 |  |
| CC(C)[C@H](NC(=O)C1(F)CCCCC1)c1ncc(-c2ccc(-c3ccc(-c4cnc([C@@H](NC(=O)C5(F)CCCCC5)C(C)C)[nH]4)cc3)cc2)[nH]1 [Compound Y-30] | >100 |  |
| CC(C)[C@H](NC(=O)C(C)(C)OCC(F)(F)F)c1ncc(-c2ccc(-c3ccc(-c4cnc([C@@H](NC(=O)C(C)(C)OCC(F)(F)F)C(C)C)[nH]4)cc3)cc2)[nH]1 [Compound Y-31] | >100 |  |
| CC(C)[C@H](NC(=O)C(C)(C)OCCF)c1ncc(-c2ccc(-c3ccc(-c4cnc([C@@H](NC(=O)C(C)(C)OCCF)C(C)C)[nH]4)cc3)cc2)[nH]1 [Compound Y-32] | >100 |  |
| CC(C)[C@H](NC(=O)C(C)(C)Oc1ccccc1F)c1ncc(-c2ccc(-c3ccc(-c4cnc([C@@H](NC(=O)C(C)(C)Oc5ccccc5F)C(C)C)[nH]4)cc3)cc2)[nH]1 [Compound Y-33] | >100 |  |
| CC1([C@H](NC(=O)C2CCC(F)(F)CC2)c2ncc(-c3ccc(-c4ccc(-c5cnc([C@@H](NC(=O)C6CCC(F)(F)CC6)C6(C)CC6)[nH]5)cc4)cc3)[nH]2)CC1 [Compound Y-34] | >100 |  |
| CC(C)(C)C(=O)N[C@H](c1ncc(-c2ccc(-c3ccc(-c4cnc([C@@H](NC(=O)C(C)(C)C)C5(C)CC5)[nH]4)cc3)cc2)[nH]1)C1(C)CC1 [Compound Y-35] | >100 |  |
| CC(C)(F)C(=O)N[C@H](c1ncc(-c2ccc(-c3ccc(-c4cnc([C@@H](NC(=O)C(C)(C)F)C5(C)CC5)[nH]4)cc3)cc2)[nH]1)C1(C)CC1 [Compound Y-36] | >100 |  |
| CC1([C@H](NC(=O)C2CCC(F)(F)CC2)c2ncc(-c3ccc(-c4ccc(-c5cnc([C@@H](NC(=O)C6CCC(F)(F)CC6)C6(C)CCC6)[nH]5)cc4)cc3)[nH]2)CCC1 [Compound Y-38] | >100 |  |
| CC(C)(C)C(=O)N[C@H](c1ncc(-c2ccc(-c3ccc(-c4cnc([C@@H](NC(=O)C(C)(C)C)C5(C)CCC5)[nH]4)cc3)cc2)[nH]1)C1(C)CCC1 [Compound Y-39] | >100 |  |
| CC(C)[C@H](NC(=O)OC(C)(C)C)c1ncc(-c2ccc(-c3ccc(-c4cnc([C@@H](NC(=O)OC(C)(C)C)C(C)(C)C)[nH]4)cc3)cc2)[nH]1 [Compound Y-40] | >100 |  |
| CC(C)[C@H](NC(=O)C(C)(C)C)c1ncc(-c2ccc(-c3ccc(-c4cnc([C@@H](NC(=O)C(C)(C)C)C(C)(C)C)[nH]4)cc3)cc2)[nH]1 [Compound Y-41] | >100 |  |
| CC(C)[C@H](NC(=O)C1CCC(F)(F)CC1)c1ncc(-c2ccc(-c3ccc(-c4cnc([C@@H](NC(=O)C5CCC(F)(F)CC5)C(C)(C)C)[nH]4)cc3)cc2)[nH]1 [Compound Y-42] | >100 |  |
| CC(C)[C@H](NC(=O)c1c(F)cccc1Cl)c1ncc(-c2ccc(-c3ccc(-c4cnc([C@@H](NC(=O)c5c(F)cccc5Cl)C(C)(C)C)[nH]4)cc3)cc2)[nH]1 [Compound Y-43] | >100 |  |
| CC(C)[C@H](NC(=O)c1ccc(Cl)s1)c1ncc(-c2ccc(-c3ccc(-c4cnc([C@@H](NC(=O)c5ccc(Cl)s5)C(C)(C)C)[nH]4)cc3)cc2)[nH]1 [Compound Y-44] | >100 |  |
